Measured values: patent publication US11344553B2, “Substituted pyrazolopyrimidines useful as kinases inhibitors” (TELIGENE LTD, priority 2017, dated 2022)
pIC50: −log10 of the molar value. Converted amounts (≈) assume the structure as drawn. Where two headings read alike, the source gives them in different places.

Legend:
[1] = Brain penetration (brain to plasma ratio); type: in vivo
[2] = system: TEL-NTRK1-BaF3 cell; experiment: TEL-NTRK1-BaF3 cell assay (CellTiter-Glo viability, 72 hours); type: cell-based
Procedure: (b) A Representative Number of Compounds were Assayed Against TEL-NTRK1-BaF3 Cell.
I. Prepare Compound Plate
Compounds to be assayed were dissolved in 100% DMSO to prepare a […] mother solution, which underwent 3× series dilution to prepare solutions with concentrations of 10 mM, 3.333 mM, 1.111 mM, 0.370 mM, 0.123 mM, 0.041 mM, 0.014 mM, all of which stored in 0.5 mL sterile eppendorf (Corning, N.Y., USA). At the same time prepare a blank sample as control containing DMSO only with the same volume as the compound solutions. The 9 samples on the Compound plate were store at −20° C. in vacuum.
II. Cell Culture Conditions
TEL-NTRK1-BaF3 cell line was cultured in RPMI 1640 (Corning, N.Y., USA)+10% fetal calf serum (Gibco/Invitrogen, USA) for two generations after resuscitation. Stored for future use.
III. Assay and Data Analysis
Cells (2,000-2,500 cells per well) at log phase were harvested and inoculated in wells of a white, opaque cell culture plate (Corning 3570, NY, USA). The volume of suspensions comprising cells in each well was 100 μL. Compounds from the Compound plate were added 0.1 μL per well to the cell culture plate to reach a final compound concentrations of 10 μM, 3.3 μM, 1.1 μM, 0.37 μM, 0.12 μM, 0.04 μM, and 0.014 μM. Incubated at 37° C. and 5% CO2 culture chamber for 72 hours. Ten μL CellTiter-Glo® Luminescent Cell Viability Assay Reagent was added to each well, wait for 10 minutes, then read using Evision Plate-Reader.
The following Table B lists compounds representative of the disclosure and their activity in TEL-NTRK1-BaF3 Cell assay.

[3] = One-month toxicity study in rat; type: in vivo; settings: 30 mg/kg and 100 mg/kg, end of administration and recovery periods
Procedure: A representative number of compounds, including Compound 1 (LOXO-101) and Compound 3, were tested in a typical one-month toxicity studies in rat with dosages of 30 mg/kg and 100 mg/kg.

[4] = Pharmacokinetic study, IV and oral, bioavailability; type: in vivo; settings: plasma, oral; rat; 2 mg/kg IV, 5 mg/kg orally; read-out: F (%) oral bioavailability
Source text: (d) Pharmacokinetic Study of a Representative Number of Compounds A representative protocol for the PK (pharmacokinetic) assay was as followed: Compounds were given either IV or orally to the same animals. […] Analysis: LC-MS/MS was used to calculate PK parameters: t1/2, tmax, Cmax, Vss and AUC, etc. The following TABLE D lists selected compounds and their bioavailability.

[5] = Solubility measurement in pH 4.0 buffer (HPLC); type: physicochemical; settings: pH 4.0 buffer solution (20 mM), aqueous buffer, thermodynamic from solid; pH 4.0 buffer (20 mM), 25° C.
Procedure: (c) Solubility Measurement of a Representative Number of Compounds
Solubility measurement procedure may include:
Preparation of reference standard solution: 2 mg of the testing compound was added individually to 100 mL volumetric flask each. The compound was diluted with acetonitrile to 100 mL.
Preparation of sample solution: 2 mg of the testing compound was added individually to 2 mL eppendorf tube (EP), followed by the addition of 1 mL of pH 4.0 buffer solution (20 mM). The solution was shaken for 2 minutes and left for 30 minutes at 25° C. After standing for 30 minutes, precipitate was formed at the bottom of the EP. The solution was filtered through a 0.2 μm membrane filter, and then diluted by 50 times with water.
The standard and sample solutions were injected into the HPLC on a Shim-Pack CLC-ODS C18 column (150 mm×6.0 mm, Sum) with the same volume. The mobile phase consists of acetonitrile with 2% trichloromethane—20 mM KH2PO4 buffer (pH=7.0) at a flow rate of 1 mL/minutes (40:60). The detection wavelength was at 264 nm. Calculation: solubility of sample=the concentration of standard×Area of sample×50/Area of standard.
The following Table C lists solubility data for selected compounds.

[6] = target: TRK-A (Homo sapiens (Human), UniProt P04629); experiment: In vitro kinase activity inhibition assay (Caliper), TRK-A; type: biochemical
Procedure: (§1) (a) An In Vitro Assay which Determines the Ability of a Test Compound to Inhibit Kinase Activity
(§2) I. Prepare 1× Kinase Base Buffer and Stop Buffer for Testing Kinases
1) 1× Kinase base buffer (for TRK-A)
(§3) II. Prepare Source Plate with Compound
(§4) 1) Dilute the compound to 50× of the final concentration in reaction by 100% DMSO. Transfer 100 μl of this compound dilution to a well in a 96-well plate. For example, if the desired highest inhibitor concentration is 10 μM, then prepare a 500 μM of compound DMSO solution in this step.
(§5) 2) Perform 3× series dilution of the compound dilution obtained in step 1) with 100% DMSO to provide 9 more diluted solutions of the compound.
(§6) 3) Add 100 μl of 100% DMSO to two empty wells for no compound control and no enzyme control in the same 96-well plate. Mark the plate as source plate.
(§7) 4) Prepare intermediate plate
(§8) Transfer 10 μl of compound from the source plate to a new 96-well plate as the intermediate plate.
(§9) Add 90 μl of 1× Kinase base buffer to each well of the intermediate plate.
(§10) Mix the compounds in intermediate plate for […] on a shaker.
Transfer 5 μl of each well from the 96-well intermediate plate to a 384-well plate in duplicates. For example, A1 of the 96-well plate is transferred to A1 and A2 of the 384-well plate. A2 of the 96-well plate is transferred to A3 and A4 of the 384-well plate, and so on. […]

[7] = target: ROS1 (Homo sapiens (Human), UniProt P08922); experiment: In vitro kinase activity inhibition assay (Caliper), ROS1; type: biochemical; settings: read-out: ROS-1 IC50
Procedure: as §1, §2, §3, §4, §5, §6, §7, §8, §9, §10
Transfer 5 μl of each well from the 96-well intermediate plate to a 384-well plate in duplicates. For example, A1 of the 96-well plate is transferred to A1 and A2 of the 384-well plate. A2 of the 96-well plate is transferred to A3 and A4 of the 384-well plate, and so on.
1) Prepare 2.5× enzyme solution Add kinase in 1× kinase base buffer. […]

Sequence of TRK-A (P04629 33-796, species assumed): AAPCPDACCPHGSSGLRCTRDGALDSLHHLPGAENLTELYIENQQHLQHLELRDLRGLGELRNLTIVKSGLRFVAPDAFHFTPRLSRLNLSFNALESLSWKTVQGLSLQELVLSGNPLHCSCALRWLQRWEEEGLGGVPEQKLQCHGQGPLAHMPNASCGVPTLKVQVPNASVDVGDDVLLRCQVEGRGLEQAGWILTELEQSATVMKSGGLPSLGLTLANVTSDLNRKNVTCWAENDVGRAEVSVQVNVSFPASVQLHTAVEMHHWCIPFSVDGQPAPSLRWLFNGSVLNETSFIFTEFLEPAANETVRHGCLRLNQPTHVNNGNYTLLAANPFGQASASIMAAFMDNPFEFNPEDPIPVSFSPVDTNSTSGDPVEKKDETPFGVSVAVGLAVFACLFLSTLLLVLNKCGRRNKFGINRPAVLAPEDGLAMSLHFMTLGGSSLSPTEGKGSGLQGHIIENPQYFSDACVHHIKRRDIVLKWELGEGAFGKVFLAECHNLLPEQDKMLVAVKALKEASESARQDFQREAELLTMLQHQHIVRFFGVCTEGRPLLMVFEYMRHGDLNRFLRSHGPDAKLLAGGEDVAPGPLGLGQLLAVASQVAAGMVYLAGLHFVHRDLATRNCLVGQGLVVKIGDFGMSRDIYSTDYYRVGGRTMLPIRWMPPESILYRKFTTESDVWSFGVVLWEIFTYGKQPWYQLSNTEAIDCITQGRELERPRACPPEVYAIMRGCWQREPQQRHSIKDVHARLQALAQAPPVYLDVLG
Sequence of ROS1 (P08922 28-2347, species assumed): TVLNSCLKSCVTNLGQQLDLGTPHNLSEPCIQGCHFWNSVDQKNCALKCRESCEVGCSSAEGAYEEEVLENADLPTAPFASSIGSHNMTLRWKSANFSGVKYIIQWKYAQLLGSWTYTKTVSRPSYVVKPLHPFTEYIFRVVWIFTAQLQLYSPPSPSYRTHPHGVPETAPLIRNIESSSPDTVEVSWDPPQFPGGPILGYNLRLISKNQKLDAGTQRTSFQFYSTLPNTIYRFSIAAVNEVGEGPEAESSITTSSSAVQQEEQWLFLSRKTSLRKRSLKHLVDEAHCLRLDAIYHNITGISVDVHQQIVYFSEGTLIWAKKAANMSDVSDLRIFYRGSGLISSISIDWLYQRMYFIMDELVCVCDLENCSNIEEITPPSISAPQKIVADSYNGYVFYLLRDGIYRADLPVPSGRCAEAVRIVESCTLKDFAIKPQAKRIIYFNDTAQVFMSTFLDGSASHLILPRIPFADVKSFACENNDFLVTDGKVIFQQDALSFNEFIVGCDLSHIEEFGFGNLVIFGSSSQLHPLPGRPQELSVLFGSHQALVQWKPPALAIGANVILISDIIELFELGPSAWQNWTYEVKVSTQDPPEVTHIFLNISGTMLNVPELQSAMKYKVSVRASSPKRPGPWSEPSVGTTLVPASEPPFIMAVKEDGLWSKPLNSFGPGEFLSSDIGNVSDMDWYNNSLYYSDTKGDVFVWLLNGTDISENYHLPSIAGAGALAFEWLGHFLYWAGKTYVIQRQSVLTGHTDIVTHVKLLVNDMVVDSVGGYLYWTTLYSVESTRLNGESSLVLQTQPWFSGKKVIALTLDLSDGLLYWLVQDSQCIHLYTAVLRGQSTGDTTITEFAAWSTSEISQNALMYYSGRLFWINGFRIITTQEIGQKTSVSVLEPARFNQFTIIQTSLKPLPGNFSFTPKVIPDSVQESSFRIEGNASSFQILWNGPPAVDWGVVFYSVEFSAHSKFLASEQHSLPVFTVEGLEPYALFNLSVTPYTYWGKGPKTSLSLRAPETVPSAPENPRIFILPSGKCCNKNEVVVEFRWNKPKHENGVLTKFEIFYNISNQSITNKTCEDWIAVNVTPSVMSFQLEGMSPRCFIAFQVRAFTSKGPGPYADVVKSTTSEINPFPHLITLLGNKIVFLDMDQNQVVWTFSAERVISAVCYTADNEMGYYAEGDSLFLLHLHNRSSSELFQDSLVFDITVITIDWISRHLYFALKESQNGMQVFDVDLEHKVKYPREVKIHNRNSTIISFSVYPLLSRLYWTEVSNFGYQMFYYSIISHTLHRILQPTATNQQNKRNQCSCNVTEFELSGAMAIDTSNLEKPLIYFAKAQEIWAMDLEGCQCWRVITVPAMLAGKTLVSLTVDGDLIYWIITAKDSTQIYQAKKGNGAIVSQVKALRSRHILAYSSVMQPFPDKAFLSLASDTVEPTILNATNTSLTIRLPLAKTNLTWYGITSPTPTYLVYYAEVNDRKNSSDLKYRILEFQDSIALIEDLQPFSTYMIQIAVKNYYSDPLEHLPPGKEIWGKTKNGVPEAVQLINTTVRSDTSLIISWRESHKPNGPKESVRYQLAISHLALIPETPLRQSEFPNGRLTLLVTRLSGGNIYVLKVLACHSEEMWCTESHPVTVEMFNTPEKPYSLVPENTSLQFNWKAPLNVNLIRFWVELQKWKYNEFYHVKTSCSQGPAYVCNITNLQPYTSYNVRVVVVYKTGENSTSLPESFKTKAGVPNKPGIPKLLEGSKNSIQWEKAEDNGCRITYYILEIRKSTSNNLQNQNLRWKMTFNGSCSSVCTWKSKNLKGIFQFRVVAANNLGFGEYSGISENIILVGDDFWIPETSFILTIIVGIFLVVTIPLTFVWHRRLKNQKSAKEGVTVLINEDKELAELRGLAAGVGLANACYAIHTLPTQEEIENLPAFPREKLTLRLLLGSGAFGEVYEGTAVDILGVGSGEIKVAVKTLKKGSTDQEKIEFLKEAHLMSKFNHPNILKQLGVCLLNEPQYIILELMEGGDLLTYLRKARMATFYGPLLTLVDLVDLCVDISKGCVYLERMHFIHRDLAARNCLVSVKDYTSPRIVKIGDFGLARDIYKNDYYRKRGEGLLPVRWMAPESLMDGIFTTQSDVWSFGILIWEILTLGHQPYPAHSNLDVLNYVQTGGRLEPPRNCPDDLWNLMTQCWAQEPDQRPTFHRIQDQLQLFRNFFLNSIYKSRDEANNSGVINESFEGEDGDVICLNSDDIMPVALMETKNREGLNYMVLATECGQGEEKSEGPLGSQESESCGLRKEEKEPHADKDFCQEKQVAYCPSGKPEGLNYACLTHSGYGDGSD

| SMILES | brain penetration ([1]; in vivo) | GI50 ([2]; 72 h) [nM] | #LYMPH and/or % LYMPH in blood [3] | #NEUT and/or % NEUT in blood [3] | bioavailability [4] [%] | solubility [5] [µg/mL] | GI50 [2] [nM] | pIC50 [6] | Kp ([1]; brain) | pIC50 [7] |
| --- | --- | --- | --- | --- | --- | --- | --- | --- | --- | --- |
| O=C(Nc1cnn2ccc(N3CCC[C@@H]3c3cc(F)ccc3F)nc12)N1CC[C@H](O)C1 [Compound 1, reference compound] | low brain penetration | 25 | slight decrease | slight increase trend | 33 | 310 (≈ 724 µM) | – | – | – | – |
| CN1CCN(Cc2ccc(C(=O)Nc3cnn4ccc(N5CCC[C@@H]5c5cc(F)ccc5F)nc34)cc2)CC1 [Compound 2] | – | – | – | – | – | – | < 1 | 8.74 | – | – |
| CN1CCN(Cc2ccc(C(=O)Nc3cnn4ccc(N5CCC[C@@H]5c5cc(F)ccc5F)nc34)cc2)CC1 [Compound 3] | – | – | – | – | 56 | 36100 (≈ 67900 µM) | 3 | 8.52 | 5.47 | 6.98 |
| CCS(=O)(=O)Nc1ccc(C(=O)Nc2cnn3ccc(N4CCC[C@@H]4c4cc(F)ccc4F)nc23)cc1 [Compound 4] | – | 24 | – | – | – | 310 (≈ 589 µM) | – | – | – | – |
